For orientation: MIC means the lowest concentration that inhibits growth of the organism.

These results are taken from patent US8604059B2, “Thioxanthene derivatives for the treatment of infectious diseases” (BKG Pharma APS, priority 2009, dated 2013).

The subject of assay [1] is Multiresistant clinical isolates of S. aureus and S. epidermidis. The assay can be described thus: Maximal reversal of resistance and synergistic effect (Table 4b). The assay is classed as cell-based. The following applies: for MIC / MIC alone: antibiotic alone, ten strains in each group; for MIC / MIC plus compound 1 0.60 ug/ml / MIC compound 2 0.98 ug/ml / MIC plus compound 3 0.30 ug/ml / MIC plus compound 4 0.75 ug/ml / MIC alone: median; for Fold enhanced, compound 1 0.60 ug/ml: enhancement of antibiotic by compound 1 at 0.60 ug/ml; for Fold enhanced, compound 2 0.98 ug/ml: enhancement of antibiotic by compound 2 at 0.98 ug/ml; for Fold enhanced, compound 3 0.30 ug/ml: enhancement of antibiotic by compound 3 at 0.30 ug/ml; for Fold enhanced, compound 4 0.75 ug/ml: enhancement of antibiotic by compound 4 at 0.75 ug/ml; for MIC plus compound 1 0.60 ug/ml: MIC of antibiotic in presence of compound 1 at 0.60 ug/ml; for MIC compound 2 0.98 ug/ml: MIC of antibiotic in presence of compound 2 at 0.98 ug/ml; for MIC plus compound 3 0.30 ug/ml: MIC of antibiotic in presence of compound 3 at 0.30 ug/ml; for MIC plus compound 4 0.75 ug/ml: MIC of antibiotic in presence of compound 4 at 0.75 ug/ml. The method, then:
(§1) The maximal obtained reversal of resistance and synergistic effect was tested as previously described.
Strains: Multiresistant clinical isolates of S. aureus and S. epidermidis, Ten strains in each group.

Assay [2] deals with Multiresistant clinical isolates E. coli. The assay can be described thus: Maximal reversal of resistance and synergistic effect (Table 4c). The following applies: for MIC: Escherichia coli; for Fold enhanced, compound 1 1.0 ug/ml: enhancement of antibiotic by compound 1 at 1.0 ug/ml; for Fold enhanced, compound 2 2.0 ug/ml: enhancement of antibiotic by compound 2 at 2.0 ug/ml; for Fold enhanced, compound 3 0.6 ug/ml: enhancement of antibiotic by compound 3 at 0.6 ug/ml. The assay is classed as cell-based. The method, then:
as §1
Strains: Multiresistant clinical isolates E. coli, Ten strains in each group.

Where [3] appears, read: antibiotic alone, median, ten strains.

Take `CC1(C)S[C@@H]2[C@H](NC(=O)[C@H](N)c3ccccc3)C(=O)N2[C@H]1C(=O)O` [Ampicillin]: in assay [1], the MIC was found to be 16 µg/mL; the “Fold enhanced, compound 1 0.60 ug/ml” value is 4 (4); the “Fold enhanced, compound 2 0.98 ug/ml” value was 4 (4); the “Fold enhanced, compound 3 0.30 ug/ml” value is on record as 8. The “Fold enhanced, compound 4 0.75 ug/ml” value in assay [1] is on record as 4 (4). In addition, the minimum inhibitory concentration (MIC) in assay [2] (setting [3]) is 32 µg/mL. Besides, in assay [2], the “Fold enhanced, compound 1 1.0 ug/ml” value is 8; the “Fold enhanced, compound 2 2.0 ug/ml” value is recorded as 4; the “Fold enhanced, compound 3 0.6 ug/ml” value came out at 16.
With `CC1(C)S[C@@H]2[C@H](NC(=O)Cc3ccccc3)C(=O)N2[C@H]1C(=O)O` [Benzylpenicillin], in assay [1], the MIC was found to be 64 µg/mL; the “Fold enhanced, compound 1 0.60 ug/ml” value is 8 (8); the “Fold enhanced, compound 2 0.98 ug/ml” value is given as 8 (8); the “Fold enhanced, compound 3 0.30 ug/ml” value stood at 16. The “Fold enhanced, compound 4 0.75 ug/ml” value in assay [1] is listed as 8 (8).
On to `CC[C@H]1OC(=O)[C@H](C)[C@@H](O[C@H]2C[C@@](C)(OC)[C@@H](O)[C@H](C)O2)[C@H](C)[C@@H](O[C@@H]2O[C@H](C)C[C@H](N(C)C)[C@H]2O)[C@](C)(O)C[C@@H](C)C(=O)[C@H](C)[C@@H](O)[C@]1(C)O` [Erythromycin], for which, in assay [1], the MIC was 16 µg/mL; the “Fold enhanced, compound 1 0.60 ug/ml” value is 4 (4); the “Fold enhanced, compound 2 0.98 ug/ml” value is 4 (4); the “Fold enhanced, compound 3 0.30 ug/ml” value is 8. The “Fold enhanced, compound 4 0.75 ug/ml” value in assay [1] is 4 (4).
Turning to `CCN1CCN(C(=O)N[C@@H](C(=O)N[C@@H]2C(=O)N3[C@@H]2SC(C)(C)[C@@H]3C(=O)O)c2ccccc2)C(=O)C1=O` [Piperacillin], the MIC in assay [2] (setting [3]) stood at 16 µg/mL. In assay [2], the “Fold enhanced, compound 1 1.0 ug/ml” value is 4 (4); the “Fold enhanced, compound 2 2.0 ug/ml” value was 4 (4); the “Fold enhanced, compound 3 0.6 ug/ml” value came out at 8.
As for `CN(C)[C@@H]1C(=O)C(C(N)=O)=C(O)[C@@]2(O)C(=O)C3=C(O)c4c(O)cccc4[C@@](C)(O)[C@H]3C[C@@H]12` [Tetracyclin], in assay [1], the “MIC plus compound 1 0.60 ug/ml” value is 4 µg/mL, the “MIC compound 2 0.98 ug/ml” value was 8 µg/mL, the “MIC plus compound 3 0.30 ug/ml” value stood at 2 µg/mL and the “MIC plus compound 4 0.75 ug/ml” value was determined as 8 µg/mL. Moreover, in assay [1], the MIC alone worked out at 16 µg/mL; the “Fold enhanced, compound 1 0.60 ug/ml” value was 2; the “Fold enhanced, compound 2 0.98 ug/ml” value was found to be 2; the “Fold enhanced, compound 3 0.30 ug/ml” value was determined as 4. Also, the “Fold enhanced, compound 4 0.75 ug/ml” value in assay [1] amounted to 2. Besides, the “MIC plus compound 1 1.0 ug/ml” value in assay [2] (MIC of antibiotic in presence of compound 1 at 1.0 ug/ml, median) is on record as 4 (4) μg/ml. For the same compound, in assay [2] (MIC of antibiotic in presence of compound 2 at 2.0 ug/ml, median), the “MIC plus compound 2 2.0 ug/ml” value was 4 (4) μg/ml. Besides, the “MIC plus compound 3 0.6 ug/ml” value in assay [2] (MIC of antibiotic in presence of compound 3 at 0.6 ug/ml, median) came to 2 µg/mL. The MIC alone in assay [2] (setting [3]) came out at 16 µg/mL. Further, in assay [2], the “Fold enhanced, compound 1 1.0 ug/ml” value was 4 (4); the “Fold enhanced, compound 2 2.0 ug/ml” value is listed as 4 (4); the “Fold enhanced, compound 3 0.6 ug/ml” value stood at 8.
Turning to Dicloxacillin & Methicillin, in assay [1], the “MIC plus compound 1 0.60 ug/ml” value was 4 µg/mL, the “MIC compound 2 0.98 ug/ml” value amounted to 4 µg/mL, the “MIC plus compound 3 0.30 ug/ml” value worked out at 2 µg/mL and the “MIC plus compound 4 0.75 ug/ml” value stood at 4 µg/mL. In assay [1], the MIC alone was found to be 64 µg/mL; the “Fold enhanced, compound 1 0.60 ug/ml” value is on record as 16; the “Fold enhanced, compound 2 0.98 ug/ml” value is given as 16; the “Fold enhanced, compound 3 0.30 ug/ml” value was 32. Moreover, in assay [1], the “Fold enhanced, compound 4 0.75 ug/ml” value came to 16.
